Read-outs that look alike come from different tables or passages of the source.
Key:
[1] = system: human umbilical vein endothelial cells (HUVEC); test: Calcium ionophore (CaI)-stimulated total peroxynitrite release from HUVEC; assay type: cell-based; settings: 3S,3′S-AST 5.0 μM, clopidogrel 1.0 μM, alone or in combination; FIG. 6
Protocol: (§1) Human umbilical vein endothelial cells (HUVECs) were isolated into primary cultures from white female donors by Clonetics (San Diego, Calif.), essentially as described (Mason et al. 2005). All donors were reported to be healthy and none had pregnancy or prenatal complications. All measurements were recorded in vitro using a sensitive porphyrinic probe, also as previously described. HUVEC cells were grown in Ham's F12K medium with 2 mM L-glutamine adjusted to contain 1.5 g/L sodium bicarbonate and supplemented with 0.1 mg/mL heparin and 0.03-0.05 mg/mL endothelial cell growth supplement (ECGS) plus 10% fetal bovine serum. The HUVEC cells were kept in an atmosphere of elevated CO2 concentration (5%).

[2] = system: human umbilical vein endothelial cells (HUVEC); test: CaI-stimulated NO/OONO- release ratio from HUVEC; assay type: cell-based; settings: 3S,3′S-AST 5.0 μM, clopidogrel 1.0 μM, alone or in combination; FIG. 7
Protocol: as §1

vascular platelets = test: Platelet-derived nitric oxide (NO) release after IP3 stimulation, NO nanosensor; assay type: cell-based, Wistar-Kyoto (WKY) rats
Protocol: Wistar-Kyoto (WKY) rats were anaesthetized and blood was collected directly from the heart using a 10 mL syringe that contained 3.8% sodium citrate (9:1, v v^−1). […] The platelet rich plasma (PRP) was then removed by aspiration. […] The number of platelets was counted and adjusted to 3.5×10^8 per mL with Tyrode-HEPES buffer. The platelets were incubated in an aggregometer with a NO nanosensor (working electrode) placed in the platelet suspension. […] All measurements of NO release were conducted in Hank's balanced salt solution (HBSS) at 37° C. The sensor operated with a three-electrode system: nanosensor (working electrode), saturated calomel electrode (reference electrode), and platinum wire (counter electrode, 0.5 mm diameter). The three electrodes were connected to a potentiostat/galvanostat PAR273. The baseline was stabilized after ˜20 s. With a nanoinjector, the test compounds were injected onto the surface of the cells following solubilization in buffer. In experiments with multiple compounds, the compounds were injected simultaneously. […] Data were acquired with the use of custom software. Amperograms (current vs. time curves) were recorded with a Guniry FAS1 Femtostat (Warminster, Pa.). The nanosensor for NO was calibrated using saturated solution (concentration 1.82 mM verified with the coulometric method). […] The data were presented as mean±S.D. for each of the triplicate measurements. The data (calculation and plotting) were transferred to Microcal Origin Software (OriginLab Corp., Northampton, Mass.). […] The NO concentration was calculated using current responses obtained from standard NO solution (prepared from […] stock solution, saturated aqueous NO solution).

[3] = system: human umbilical vein endothelial cells (HUVEC); test: Calcium ionophore (CaI)-stimulated total nitric oxide release from HUVEC; assay type: cell-based; settings: 3S,3′S-AST 5.0 μM, clopidogrel 1.0 μM, alone or in combination; FIG. 5
Protocol: as §1
All measurements of NO release were conducted in Hank's balanced salt solution (HBSS) at 37° C. The sensor operated with a three-electrode system: nanosensor (working electrode), saturated calomel electrode (reference electrode), and platinum wire (counter electrode, 0.5 mm diameter). The three electrodes were connected to a potentiostat/galvanostat PAR273. […] The current (amps) proportional to the NO concentration was measured with the sensor, which operated in amperometric mode at a constant potential of 0.63 V. Data were acquired with the use of custom software. Amperograms (current vs. time curves) were recorded with a Guniry FAS1 Femtostat (Warminster, Pa.).

[4] = Dog PK of astaxanthin derivatives (CXPK07402, 07404, 07405, 07406)
Protocol: In another experiment, ADL was administered to non-naïve beagle dogs orally (as an aqueous suspension containing 0.5% carboxymethylcellulose) and intravenously as an aqueous solution. Oral doses that included 10 mg/kg of the carotenoid derivative, 100 mg/kg of the carotenoid derivative, and 500 mg/kg of the carotenoid derivative were administered to each dog. The intravenous dosage was 5 mg/kg. (See FIG. 20, PK Study #CXPK07402). For each carotenoid derivative given to the dogs in this example, the amount of all astaxanthin isomers, the amount of trans astaxanthin isomers, and the amount of cis astaxanthin isomers in the plasma was determined at predefined time intervals for 3 days (72 hours).
In another experiment, ADL was administered to naïve beagle dogs orally (as an aqueous suspension containing 0.5% carboxymethylcellulose) twice a day for six days. Each oral dose included 75 mg/kg of the carotenoid derivative. (See FIG. 20, PK Study #CXPK07404). For each carotenoid derivative given to the dogs in this example, the amount of all astaxanthin isomers, the amount of trans astaxanthin isomers, and the amount of cis astaxanthin isomers in the plasma was determined at predefined time intervals for 6 days.
In another experiment, all-trans 3S,3′ S-astaxanthin diester di-beta-alanine dihydrochloride salt (hereinafter “ADA”); ADG; ADL; ADSa; and ADS were administered orally to separate non-naïve dogs as a aqueous suspension containing 0.5% carboxymethylcellulose. A single dose that included 20 mg/kg of the carotenoid derivative was administered to each dog. (See FIG. 20, PK Study #CXPK07405). For each carotenoid derivative given to the dogs in this example, the amount of all astaxanthin isomers was determined at predefined time intervals for 3 days (72 hours).
In another experiment, ADG or ADSa was administered to non-naïve beagle dogs orally (as an aqueous suspension containing 0.5% carboxymethylcellulose). Oral doses included either 50 mg/kg of the carotenoid derivative or 100 mg/kg of the carotenoid derivative. (See FIG. 20, PK Study #CXPK07406). For each carotenoid derivative given to the dogs in this example, the amount of all astaxanthin isomers, the amount of trans astaxanthin isomers, and the amount of cis astaxanthin isomers in the plasma was determined at predefined time intervals for 3 days (72 hours).

Aqueous dispersibility = assay type: physicochemical; settings: USP-purified water; no heat, detergents, co-solvents
Excerpt: In some embodiments, highly water-dispersible C40 carotenoid derivatives may include natural source RRR-lutein (β,ε-carotene-3,3′-diol) derivatives. Derivatives may be synthesized by esterification with inorganic phosphate and succinic acid, respectively, and subsequently converted to the sodium salts. Deep orange, evenly colored aqueous suspensions were obtained after addition of these derivatives to USP-purified water. […] Aqueous suspensions may be obtained without the addition of heat, detergents, co-solvents, or other additives.
Disodium disuccinate astaxanthin (DDA; see FIG. 1B) was synthesized from commercially available crystalline astaxanthin (Buckton Scott, India) as previously described in Frey, et al. (“The efficient synthesis of disodium disuccinate astaxanthin (Cardax).” Org Process Res Dev 8: 796-801, 2004.). The final product purity was 97% (as area under the curve) by HPLC analysis. DDA was dissolved directly in sterile-filtered deionized water. The maximum aqueous dispersibility of DDA is approximately 10 mM, or 8.64 mg/ml. Vehicle consisted of isotonic sterile 0.9% NaCl solution.

[5] = rat, in vivo
Protocol: In a another experiment, all-trans 3S,3′S-astaxanthin diester diglycinate dihydrochloride salt (hereinafter “ADG”); all-trans 3S,3′S-astaxanthin diester disarcosinate dihydrochloride salt (hereinafter “ADSa”); and ADL were administered orally to separate rats as a aqueous suspension containing 0.5% carboxymethylcellulose. A single dose that included 40 mg/kg of the carotenoid derivative was administered to each rat. (See FIG. 20, PK Study #CXPK07202). For each carotenoid derivative given to the rats in this example, the amount of all astaxanthin isomers, the amount of trans astaxanthin isomers, and the amount of cis astaxanthin isomers in the plasma was determined at predefined time intervals for 3 days (72 hours).
In another experiment, ADG; ADSa; and ADL were administered to separate rats intravenously as an aqueous solution. A single dose that included 5 mg/kg of the carotenoid derivative was administered to each rat. (See FIG. 20, PK Study #CXPK07202). For each carotenoid derivative given to the rats in this example, the amount of all astaxanthin isomers, the amount of trans astaxanthin isomers, and the amount of cis astaxanthin isomers in the plasma was determined at predefined time intervals for 3 days (72 hours).

[6] = parameters: species or system rats; settings: in vivo, po, 500 mg/kg
Protocol: In one experiment, astaxanthin; all-trans 3S,3'S-astaxanthin diester disuccinate disodium salt (hereinafter “ADS”); and all-trans 3S,3'S-astaxanthin diester […] tetrahydrochloride salt (hereinafter “ADL”) were administered orally to separate rats as a lipid suspension. A single dose that included 500 mg/kg of the carotenoid/carotenoid derivative was administered to each rat. (See FIG. 20, PK Study #CXPK07201). Plasma from each of the rats was collected 4 hours after ingestion and 8 hours after ingestion and all samples were analyzed by high performance liquid chromatography (“HPLC”). HPLC analysis was used to detect the presence of free underivatized carotenoid (e.g., in this example, astaxanthin) in the plasma. HPLC chromatograms were collected for each plasma sample taken.

Compound: COC(=O)[C@H](c1ccccc1Cl)N1CCc2sccc2C1 [clopidogrel, reference compound]
- effect on CaI-stimulated total peroxynitrite (OONO−) release from HUVEC [1]: did not significantly change
- effect on CaI-stimulated NO/OONO− release ratio from HUVEC [2]: did not significantly change
- total NO release from vascular platelets (vascular platelets; IP3 stimulation, homochiral astaxanthin 5.0 μM, clopidogrel 1.0 μM, controls 6.6±0.3, mean±S.D.): 10.2±0.4 molecules NO×10^6/platelet
- effect on CaI-stimulated total nitric oxide release from HUVEC [3]: did not significantly change

Compound: CC(C=CC=C(C)C=CC1=C(C)C(=O)C(OC(=O)CCN)CC1(C)C)=CC=CC=C(C)C=CC=C(C)C=CC1=C(C)C(=O)C(OC(=O)CCN)CC1(C)C.Cl.Cl (stereo not drawn) [ADA, all-trans 3S,3′ S-astaxanthin diester di-beta-alanine dihydrochloride salt]
- absorption and metabolism to astaxanthin in plasma ([4]; non-naïve dogs, single oral 20 mg/kg): absorbed by the dogs and metabolized

Compound: CCC(C)(C)C(=O)O[C@H]1C[C@@H](C)C=C2C=C[C@H](C)[C@H](CC[C@@H]3C[C@@H](O)CC(=O)O3)[C@H]21 [simvastatin, reference compound]
- effect on platelet-derived NO release (vascular platelets; 1.0 μM, IP3 1.0 μM, FIG. 11): no effect

Compound: CC(C=CC=C(C)C=CC1=C(C)CC(OC(=O)CCC(=O)[O-])CC1(C)C)=CC=CC=C(C)C=CC=C(C)C=CC1C(C)=CC(OC(=O)CCC(=O)[O-])CC1(C)C.[Na+].[Na+] (centres unmarked)
- aqueous dispersibility (Aqueous dispersibility): 2.85 mg/mL

Compound: CC1=C(/C=C/C(C)=C/C=C/C(C)=C/C=C/C=C(C)/C=C/C=C(C)/C=C/C2=C(C)C(=O)[C@@H](OC(=O)CN)CC2(C)C)C(C)(C)C[C@H](OC(=O)CN)C1=O.Cl.Cl (relative stereo) [ADG, all-trans 3S,3′S-astaxanthin diester diglycinate dihydrochloride salt]
- absorption and metabolism to astaxanthin in plasma ([4]; dog, in vivo, po, 20 mg/kg): absorbed by the dogs and metabolized
- absorption and metabolism to astaxanthin in plasma ([5]; iv, 5 mg/kg): absorbed by the rats and metabolized
- absorption and metabolism to astaxanthin in plasma ([5]; po, 40 mg/kg): absorbed by the rats and metabolized

Compound: CC1=C(/C=C/C(C)=C/C=C/C(C)=C/C=C/C=C(C)/C=C/C=C(C)/C=C/C2=C(C)C(=O)[C@@H](OC(=O)[C@@H](N)CCCCN)CC2(C)C)C(C)(C)C[C@H](OC(=O)[C@@H](N)CCCCN)C1=O.Cl.Cl.Cl.Cl (relative stereo) [ADL, all-trans 3S,3′S-astaxanthin diester dilysinate tetrahydrochloride salt]
- absorption and metabolism to astaxanthin in plasma ([4]; dog, in vivo, po, 20 mg/kg): absorbed by the dogs and metabolized
- absorption and metabolism to astaxanthin in plasma ([4]; dog, in vivo, po, 75 mg/kg): absorbed by the dogs and metabolized
- free astaxanthin in rat plasma [6]: significant amount
- absorption and metabolism to astaxanthin in plasma ([5]; iv, 5 mg/kg): absorbed by the rats and metabolized
- absorption and metabolism to astaxanthin in plasma ([5]; po, 40 mg/kg): absorbed by the rats and metabolized

Compound: CC1=C(/C=C/C(C)=C/C=C/C(C)=C/C=C/C=C(C)/C=C/C=C(C)/C=C/C2=C(C)C(=O)[C@@H](OC(=O)CCC(=O)[O-])CC2(C)C)C(C)(C)C[C@H](OC(=O)CCC(=O)[O-])C1=O.[Na+].[Na+] (relative stereo) [ADS, all-trans 3S,3′S-astaxanthin diester disuccinate disodium salt]
- absorption and metabolism to astaxanthin in plasma ([4]; dog, in vivo, po, 20 mg/kg): absorbed by the dogs and metabolized
- free astaxanthin in rat plasma [6]: significant amount
